From patent US20220202705A1, “THERMORESPONSIVE HYDROGEL CONTAINING POLYMER MICROPARTICLES FOR NONINVASIVE OCULAR BIOLOGIC DELIVERY” (University of Pittsburgh - Of the Commonwealth System of …, priority 2016, published 2022)

What was measured:
[1] = in vivo; cited from earlier work
[2] = Loading and release of other drugs from microparticles embedded in the gel; assay type: physicochemical
Text: The loading and release of other drugs (moxiflxacin and vancomycin) with the microparticles embedded within the gel has also been confirmed.

[3] = 2 drops per day of 0.2% BT, 1-7% absorption, 0.66 mg brimonidine per mg BT
Description: Theoretical maximum and minimum amounts of BT absorption were also calculated as a basis for comparison for in vitro release from the BTMPs. This range was calculated by assuming a 50 μl drop and 2 drops administered per day at a rate of either 1% (minimum) or 7% (maximum) absorption (Ghate and Edelhauser, 2008). As the in vitro release methods measure base brimonidine and not the tartrate salt, a necessary conversion factor of 0.66 mg brimonidine for every 1 mg BT was incorporated in these calculations (Acheampong et al., 2002).

[4] = In vitro NGF release from PLGA microspheres; assay type: physicochemical; settings: FIG. 15
Description: 1. Prepare aqueous solution of NGF in DI water at 100 ug/ml concentration
2. Add 200 ul of this NGF solution to 4 ml dichloromethane/PLGA solution (using 200 mg of desired PLGA—for microspheres in FIG. 1 this was acid terminated 50:50 lactic:glycolic MW=7-17,000 Da viscosity=0.16-0.24 dl/g)
3. Sonicate for 10 s at 25% amplitude
4. Immediately add to 60 ml of 2% PVA solution and homogenize at 2300 rpm for 1 min
5. Add to 80 ml of 1% PVA solution and stir at 600 rpm for 3 h
6. Wash 4 times (each wash: centrifuge 5-10 min at 1000 rpm, decant, resuspend in DI water)
7. Freeze under liquid N2 and place on lyophilizer until all water is gone
1. Add microspheres (10 mg microspheres/100 ul gel) just prior to use and gently mix to suspend homogeneously.

[5] = system: New Zealand White rabbits; test: Post-mortem T1-weighted MRI 24 h after intravitreal injection of Gd-DOTA in thermoresponsive gel; assay type: in vivo, rabbit; settings: in hydrogel
Description: Scans were performed within one hour of sacrifice. Soluble Gd-DOTA without MP encapsulation was largely cleared from the injection site at 24 h, with only 56% and 59% signal intensity (relative to nearby muscle tissue) in the vitreous and anterior chamber, respectively. […] The spatiotemporal distribution of Gd-DOTA into the rest of the eye will also provide valuable data for future controlled release formulations of other ocular therapeutics, such as those targeting the posterior segment of the eye.

With Brimonidine tartrate [BT] as the compound, how does the ocular half-life [1] read?
The ocular half-life was 28.2 min.

Which ocular half-life [1] does the source give for O=C([O-])CN(CCN(CC(=O)[O-])CC(=O)O)CCN(CC(=O)[O-])CC(=O)O.[Gd+3] [Gd-DTPA] here?
The ocular half-life was 28.08 min.

For CN[C@H](CC(C)C)C(=O)N[C@H]1C(=O)N[C@@H](CC(N)=O)C(=O)N[C@H]2C(=O)N[C@H]3C(=O)N[C@H](C(=O)N[C@H](C(=O)O)c4cc(O)cc(O)c4-c4cc3ccc4O)[C@H](O)c3ccc(c(Cl)c3)Oc3cc2cc(c3O[C@@H]2O[C@H](CO)[C@@H](O)[C@H](O)[C@H]2O[C@H]2C[C@](C)(N)[C@H](O)[C@H](C)O2)Oc2ccc(cc2Cl)[C@H]1O [vancomycin], which “loading and release with microparticles embedded within the gel” value [2] is on record?
The value was “confirmed”.

For Brc1c(NC2=NCCN2)ccc2nccnc12 [Brimonidine, brimonidine], which “therapeutic levels (theoretical brimonidine absorbed)” value [3] is on record?
The value was 0.53 to 3.7 µg/day.

Which “duration of NGF release” value [4] does the source give for “NGF: nerve growth factor, released from NGF-loaded PLGA microspheres” here?
Its value is “approximately one week”.

Which “signal intensity relative to muscle, anterior chamber” value [5] does the source give for O=C([O-])CN1CCN(CC(=O)[O-])CCN(CC(=O)O)CCN(CC(=O)[O-])CC1.[Gd+3] [Soluble Gd-DOTA, gadolinium-tetraazocyclododecanetetraacetic acid] here?
The value was 59%.

And the “signal intensity relative to muscle, vitreous” value [5]?
Its value is 56%.
